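All cell lines were grown in 96-well plates and treated with compound for 48 hours. The concentration for 50% growth inhibition is given as GI50. TGI is the concentration that stops growth completely.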
Legend:
Experiment in all cases: NCI-60 cell line screen, 48 h
HL-60(TB) leukemia = tested on: HL-60(TB) leukemia
HOP-62 NSCLC = tested on: HOP-62 NSCLC
HOP-92 NSCLC = tested on: HOP-92 NSCLC
IGROV1 ovarian = tested on: IGROV1 ovarian
KM12 colon = tested on: KM12 colon
NCI-H226 lung = tested on: NCI-H226 lung
SF-539 CNS = tested on: SF-539 CNS
SK-OV-3 ovarian = tested on: SK-OV-3 ovarian
SNB-19 CNS = tested on: SNB-19 CNS
MCF7 breast = tested on: MCF7 breast

Structure (SMILES) | TGI (HL-60(TB) leukemia) | TGI (HOP-62 NSCLC) | TGI (HOP-92 NSCLC) | TGI (IGROV1 ovarian) | TGI (KM12 colon) | TGI (NCI-H226 lung) | TGI (SF-539 CNS) | TGI (SK-OV-3 ovarian) | TGI (SNB-19 CNS) | GI50 (HL-60(TB) leukemia) | GI50 (HOP-62 NSCLC) | GI50 (HOP-92 NSCLC) | GI50 (IGROV1 ovarian) | GI50 (KM12 colon) | GI50 (NCI-H226 lung) | GI50 (SF-539 CNS) | GI50 (SK-OV-3 ovarian) | GI50 (SNB-19 CNS) | TGI (MCF7 breast)
C=C(C)C1CC=C(C(=O)O)CC1 (stereo unspecified) | 2630 µM | 1770 µM | 3930 µM | 1480 µM | 2140 µM | 2590 µM | 2510 µM | > 5000 µM | 4330 µM | – | – | – | – | – | – | – | – | – | –
COc1ccc2[nH]c3c4c(c5cc(C(C)(C)C)ccc5c3c2c1)C(=O)N(c1ccccc1)C4=O | > 100 µM | > 100 µM | – | > 100 µM | > 100 µM | > 100 µM | 49 µM | > 100 µM | > 100 µM | – | – | – | – | – | – | – | – | – | –
c1cncc(C2c3[nH]c4ccccc4c3CCN2CCCN2CCCCC2)c1 (stereo unspecified) | > 100 µM | > 100 µM | > 100 µM | > 100 µM | > 100 µM | > 100 µM | > 100 µM | > 100 µM | > 100 µM | – | – | – | – | – | – | – | – | – | –
CC1=CC(=O)C(C)(C2=NC(C)(C)CO2)c2ccccc21 (stereo unspecified) | > 100 µM | > 100 µM | > 100 µM | > 100 µM | > 100 µM | > 100 µM | > 100 µM | > 100 µM | > 100 µM | – | – | – | – | – | – | – | – | – | –
CC[O-].CC[O-].[O-]c1ccccc1C=Nc1ccccc1.[O-]c1ccccc1C=Nc1ccccc1.[Ti+4] | > 100 µM | > 100 µM | > 100 µM | > 100 µM | > 100 µM | > 100 µM | > 100 µM | > 100 µM | > 100 µM | > 100 µM | > 100 µM | > 100 µM | > 100 µM | 26.7 µM | > 100 µM | > 100 µM | > 100 µM | > 100 µM | –
CCOC(=O)C1Cc2c(ccc(OC)c2OC)C(=O)C1N (stereo unspecified) | > 100 µM | > 100 µM | > 100 µM | > 100 µM | > 100 µM | > 100 µM | > 100 µM | > 100 µM | > 100 µM | – | – | – | – | – | – | – | – | – | –
CC(=O)CC(=O)N(CCN(C(=O)CC(C)=O)c1ccccc1)c1ccccc1 | > 100 µM | > 100 µM | > 100 µM | > 100 µM | > 100 µM | > 100 µM | > 100 µM | > 100 µM | > 100 µM | – | – | – | – | – | – | – | – | – | –
CN1C(=O)n2c(nc3ccccc32)C(N=[N+]=[N-])(N=[N+]=[N-])C1=O (stereo unspecified) | > 100 µM | > 100 µM | > 100 µM | > 100 µM | > 100 µM | > 100 µM | > 100 µM | > 100 µM | > 100 µM | – | – | – | – | – | – | – | – | – | –
O=C1c2ccccc2C(=O)N1/N=C\c1ccc(Br)cc1 | > 100 µM | > 100 µM | > 100 µM | > 100 µM | > 100 µM | > 100 µM | > 100 µM | > 100 µM | > 100 µM | > 100 µM | > 100 µM | > 100 µM | > 100 µM | > 100 µM | > 100 µM | > 100 µM | – | > 100 µM | –
CCOC(=O)C12CCCC1(O)N(NC(=O)c1cccc(Cl)c1)C(C)=C2C(=O)OC (stereo unspecified) | > 100 µM | > 100 µM | – | > 100 µM | > 100 µM | > 100 µM | > 100 µM | > 100 µM | > 100 µM | – | – | – | – | – | – | – | – | – | –
CCC[CH2][Sn]1([CH2]CCC)[O]C(c2ccccn2)S(=O)(=O)[O]1 (stereo unspecified) | 5.04 µM | 43 µM | 2.86 µM | 20.3 µM | 26 µM | 30 µM | 3.93 µM | 30.9 µM | 23.5 µM | 2.14 µM | 28.1 µM | 1.41 µM | 6.47 µM | 12.7 µM | 16.2 µM | 1.74 µM | 16.8 µM | 11.4 µM | –
COc1cccc(/C=C(/C(=O)O)c2cc(OC)c(OC)c(OC)c2)c1 | > 100 µM | > 100 µM | > 100 µM | > 100 µM | > 100 µM | > 100 µM | > 100 µM | – | > 100 µM | – | – | – | – | – | – | – | – | – | –
CC1(C)CCC(=O)c2c(O)ccc(O)c21 | – | – | 76.9 µM | > 100 µM | > 100 µM | > 100 µM | > 100 µM | > 100 µM | > 100 µM | – | – | – | – | – | – | – | – | – | –
O=c1[nH]cnc2c(C3OC(CO)C(O)C3O)[nH]nc12 (stereo unspecified) | > 100 µM | > 100 µM | – | > 100 µM | > 100 µM | > 100 µM | > 100 µM | 28.3 µM | > 100 µM | – | – | – | – | – | – | – | – | – | > 100 µM
O=C(O)C1C2C=CC(O2)C1C(=O)Nc1ccccc1 (stereo unspecified) | – | > 100 µM | – | > 100 µM | > 100 µM | > 100 µM | – | > 100 µM | > 100 µM | – | – | – | – | – | – | – | – | – | > 100 µM
CSc1nc(NC2OCC(OC(C)=O)C(OC(C)=O)C2OC(C)=O)c(N=CC=Nc2c(NC3OCC(OC(C)=O)C(OC(C)=O)C3OC(C)=O)nc(SC)n(C)c2=O)c(=O)n1C (stereo unspecified) | > 100 µM | > 100 µM | > 100 µM | > 100 µM | > 100 µM | – | > 100 µM | > 100 µM | > 100 µM | – | – | – | – | – | – | – | – | – | –
CC(=O)[CH-]C(=O)c1ccccc1.CC(=O)[CH-]C(=O)c1ccccc1.O=C([O-])C[O-].O=C([O-])C[O-].[Ti+4] | > 100 µM | > 100 µM | – | > 100 µM | 69.2 µM | 73 µM | > 100 µM | > 100 µM | > 100 µM | 40 µM | 58.7 µM | – | > 100 µM | 21.7 µM | 19.4 µM | 41.8 µM | 35.8 µM | 30.8 µM | –
Nn1c(CCCl)nc2c(Br)cc(Br)cc2c1=O | 6.5 µM | 71.8 µM | > 90.8 µM | 60.3 µM | 38.1 µM | > 75.1 µM | > 91.4 µM | > 94.1 µM | > 100 µM | – | – | – | – | – | – | – | – | – | –
CCOC(=O)/C(=C/c1ccc(OC)c(OC)c1)C(=O)c1ccccc1 | – | 35.6 µM | – | 51.4 µM | 31.5 µM | – | – | 73.1 µM | 30.1 µM | – | – | – | – | – | – | – | – | – | –
C/C(CC(=O)CCCC(=O)Nc1ccc(Cl)cc1Cl)=N/NC(=O)CC#N | > 100 µM | – | – | > 100 µM | > 100 µM | > 100 µM | > 100 µM | > 100 µM | > 100 µM | – | – | – | – | – | – | – | – | – | –
Cc1cc(C)c(C(=O)O)c(N)c1O | > 100 µM | > 100 µM | – | > 100 µM | > 100 µM | > 100 µM | – | > 100 µM | > 100 µM | – | – | – | – | – | – | – | – | – | –

— PubChem BioAssay (NCI)
